Data on seven molecules can be found in patent publication US20240059753A1, “COMPOSITIONS INCLUDING MULTI-AGONIST PEPTIDES AND METHODS OF MANUFACTURE AND USE” (Pep2Tango Therapeutics Inc., priority 2022, published 2024).

Counter-ions that a name gives are not always drawn. Numbered stars: 1 amine (or outer) side, 2 acyl side, 3 side chain; on linkers, the order of the positions; unused ones are H or OH. Bridge positions count the residues as written; N and C are the ends. Square brackets hold non-standard residues; d marks the D form. Side chains are listed from the residue outwards. * marks the point of attachment. C20 diacid = O=C(O)CCCCCCCCCCCCCCCCCCC(=O)*; C18 diacid = O=C(O)CCCCCCCCCCCCCCCCC(=O)*; γGlu = O=C(O)[C@H](CCC(=O)[*:2])N[*:1]; AEEA = NCCOCCOCC(=O)O; Aib = CC(C)(N)C(=O)O

The target of one assay is Human GLP-1R (Homo sapiens, UniProt P43220). Briefly: GPCR cell-based cAMP assay, human GLP-1 receptor. Details: expressed in transfected cells; host or cells: CHO-K1, stably transfected. The following applies: stably transfected CHO-Kl cells, 0.1% casein. Here is the method: (§1) Experimental protocol: Cells were seeded in a total volume of 20 μL into white walled, 384-well microplates and incubated at 37° C. overnight prior to testing. Prior to testing cell plating media was exchanged with 10 μL of Assay buffer (HBSS+10 mM HEPES). All compounds were run in assay buffer containing 0.1% casein. Briefly, intermediate dilution of sample stocks was performed to generate 4× sample in assay buffer. 5 μL of 4× sample was added to cells and incubated at 37° C. for 30 minutes. Final assay vehicle concentration was 1%. […] Microplates were read following signal generation with PerkinElmer Envision instrument for chemiluminescent signal detection.
Chain of Human GLP-1R (P43220 24-463): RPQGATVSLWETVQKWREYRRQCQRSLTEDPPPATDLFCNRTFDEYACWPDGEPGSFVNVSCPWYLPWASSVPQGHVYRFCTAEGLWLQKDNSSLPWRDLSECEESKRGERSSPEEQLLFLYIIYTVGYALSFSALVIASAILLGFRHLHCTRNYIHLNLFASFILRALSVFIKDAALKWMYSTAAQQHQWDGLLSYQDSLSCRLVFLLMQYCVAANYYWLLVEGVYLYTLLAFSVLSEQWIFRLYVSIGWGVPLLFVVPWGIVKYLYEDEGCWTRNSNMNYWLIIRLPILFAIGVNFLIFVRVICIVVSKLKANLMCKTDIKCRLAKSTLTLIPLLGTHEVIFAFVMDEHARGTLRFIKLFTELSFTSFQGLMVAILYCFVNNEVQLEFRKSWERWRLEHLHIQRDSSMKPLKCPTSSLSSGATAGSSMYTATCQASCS
(§2) The results are expressed as a percent efficacy relative to the maximum response of the control ligand.

Another assay addresses T1, Human Calc/RAMP3R (AMY3) (Homo sapiens, UniProt O60896+P30988).
T1 construct: expressed in transfected cells; host or cells: CHO-K1, stably transfected
T1 sequence (P30988 25-474): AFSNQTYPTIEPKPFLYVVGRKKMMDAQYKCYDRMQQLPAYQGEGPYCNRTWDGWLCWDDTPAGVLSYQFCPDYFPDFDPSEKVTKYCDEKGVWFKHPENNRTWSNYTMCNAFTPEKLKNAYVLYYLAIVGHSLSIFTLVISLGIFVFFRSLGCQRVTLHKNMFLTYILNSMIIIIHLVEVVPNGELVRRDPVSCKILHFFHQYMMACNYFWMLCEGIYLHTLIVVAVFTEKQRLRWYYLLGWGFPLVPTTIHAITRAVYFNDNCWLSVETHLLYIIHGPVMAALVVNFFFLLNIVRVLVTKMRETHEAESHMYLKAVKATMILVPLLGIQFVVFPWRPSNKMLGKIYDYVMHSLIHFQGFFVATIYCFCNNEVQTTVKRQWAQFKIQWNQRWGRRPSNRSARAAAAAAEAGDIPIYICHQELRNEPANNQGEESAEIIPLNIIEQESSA
T1 sequence (O60896 24-148 partner): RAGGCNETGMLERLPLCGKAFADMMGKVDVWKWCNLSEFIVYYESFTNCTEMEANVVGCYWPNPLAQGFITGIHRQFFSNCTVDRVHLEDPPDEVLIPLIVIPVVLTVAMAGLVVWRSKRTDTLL
The assay is described as follows: GPCR cell-based cAMP assay, human AMY3 receptor. To be noted: stably transfected CHO-Kl cells, 0.1% casein. Here is the method: as §1, §2

The next assay concerns the target T2, Human CalcitoninR (Homo sapiens, UniProt P30988).
T2 construct: expressed in transfected cells; host or cells: CHO-K1, stably transfected
T2 sequence (P30988 25-474): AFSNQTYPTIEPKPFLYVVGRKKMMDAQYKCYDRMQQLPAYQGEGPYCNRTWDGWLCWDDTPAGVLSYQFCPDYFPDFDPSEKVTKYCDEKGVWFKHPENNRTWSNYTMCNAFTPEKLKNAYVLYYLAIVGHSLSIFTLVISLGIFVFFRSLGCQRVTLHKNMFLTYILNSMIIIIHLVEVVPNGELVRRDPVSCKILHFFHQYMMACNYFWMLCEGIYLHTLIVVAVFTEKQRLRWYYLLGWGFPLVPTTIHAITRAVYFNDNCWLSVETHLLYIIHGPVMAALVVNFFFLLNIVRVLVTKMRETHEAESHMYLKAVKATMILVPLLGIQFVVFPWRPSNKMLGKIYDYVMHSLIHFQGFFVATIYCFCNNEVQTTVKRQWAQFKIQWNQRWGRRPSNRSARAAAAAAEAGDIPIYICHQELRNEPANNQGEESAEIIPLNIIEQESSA
The assay is described as follows: GPCR cell-based cAMP assay, human calcitonin receptor. To be noted: stably transfected CHO-Kl cells, 0.1% casein. Here is the method: as §1, §2

A further assay deals with T3, Human GIPR (Homo sapiens, UniProt P48546).
T3 construct: expressed in transfected cells; host or cells: CHO-K1, stably transfected
T3 sequence (P48546 22-466): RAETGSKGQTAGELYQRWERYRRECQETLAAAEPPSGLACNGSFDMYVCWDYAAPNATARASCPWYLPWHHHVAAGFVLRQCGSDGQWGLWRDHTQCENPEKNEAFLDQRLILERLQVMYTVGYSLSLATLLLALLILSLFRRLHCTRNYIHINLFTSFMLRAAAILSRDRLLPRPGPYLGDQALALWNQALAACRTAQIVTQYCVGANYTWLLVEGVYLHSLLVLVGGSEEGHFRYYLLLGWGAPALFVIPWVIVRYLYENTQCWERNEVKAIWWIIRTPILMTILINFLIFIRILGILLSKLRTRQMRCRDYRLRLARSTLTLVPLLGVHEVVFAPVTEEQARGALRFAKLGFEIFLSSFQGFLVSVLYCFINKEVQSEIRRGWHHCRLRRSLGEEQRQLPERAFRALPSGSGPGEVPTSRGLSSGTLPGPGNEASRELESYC
Briefly: GPCR cell-based cAMP assay, human GIP receptor. To be noted: stably transfected CHO-Kl cells, 0.1% casein. Here is the method: as §1, §2

The subject of a further assay is 4 h fasted mice. The assay is described as follows: Blood glucose after single administration of peptides. It counts as in vivo. Here is the method: Differences were considered statistically significant at p<0.05. Data analysis was carried out with GraphPad software (GraphPad Prism).

Regarding `CC[C@H](C)[C@H](NC(=O)[C@H](CC(C)C)NC(=O)[C@H](Cc1c[nH]c2ccccc12)NC(=O)[C@H](CCC(N)=O)NC(=O)[C@@H](NC(=O)[C@H](Cc1ccccc1)NC(=O)[C@H](C)NC(=O)[C@H](CCC(N)=O)NC(=O)[C@H](CCC(N)=O)NC(=O)[C@H](C)NC(=O)[C@@H](NC(=O)[C@H](CCCCN)NC(=O)[C@H](CC(=O)O)NC(=O)[C@H](CC(C)C)NC(=O)C(C)(C)NC(=O)[C@@H](NC(=O)[C@H](CO)NC(=O)[C@H](Cc1ccc(O)cc1)NC(=O)[C@H](CC(=O)O)NC(=O)[C@H](CO)NC(=O)[C@@H](NC(=O)[C@H](Cc1ccccc1)NC(=O)[C@@H](NC(=O)CNC(=O)[C@H](CCC(=O)O)NC(=O)C(C)(C)NC(=O)[C@@H](N)Cc1ccc(O)cc1)[C@@H](C)O)[C@@H](C)O)[C@@H](C)CC)[C@@H](C)CC)C(C)C)C(=O)N[C@@H](C)C(=O)NCC(=O)NCC(=O)N1CCC[C@H]1C(=O)N[C@@H](CO)C(=O)N[C@@H](CCCCNC(=O)COCCOCCNC(=O)COCCOCCNC(=O)CC[C@H](NC(=O)CCCCCCCCCCCCCCCCC(=O)O)C(=O)O)C(=O)N[C@H]1CSSC[C@@H](C(=O)N[C@@H](C)C(=O)N[C@H](C(=O)N[C@@H](CCC(N)=O)C(=O)N[C@@H](CCCNC(=N)N)C(=O)N[C@@H](CC(C)C)C(=O)N[C@@H](C)C(=O)N[C@@H](CCC(=O)O)C(=O)N[C@@H](Cc2ccccc2)C(=O)N[C@@H](CC(C)C)C(=O)N[C@@H](CCCNC(=N)N)C(=O)N[C@@H](Cc2c[nH]cn2)C(=O)N[C@@H](CO)C(=O)N[C@@H](CO)C(=O)N[C@@H](CC(N)=O)C(=O)N[C@@H](CC(N)=O)C(=O)N[C@@H](Cc2ccccc2)C(=O)NCC(=O)N2CCC[C@H]2C(=O)N[C@H](C(=O)N[C@@H](CC(C)C)C(=O)N2CCC[C@H]2C(=O)N2CCC[C@H]2C(=O)N[C@H](C(=O)N[C@@H](CC(N)=O)C(=O)N[C@H](C(=O)NCC(=O)N[C@@H](CO)C(=O)N[C@@H](Cc2c[nH]cn2)C(=O)N[C@H](C(=O)N2CCC[C@H]2C(N)=O)[C@@H](C)O)C(C)C)[C@@H](C)O)[C@@H](C)CC)[C@@H](C)O)NC(=O)[C@H]([C@@H](C)O)NC(=O)[C@H](C)NC(=O)[C@H]([C@@H](C)O)NC(=O)[C@H](CC(N)=O)NC1=O` [SEQ ID NO. 55, Y-Aib-E-G-T-F-T-S-D-Y-S-I-Aib-LDKIAQQAFVQWLIAGGPSK*-CNTATCATQRLAEFLRHSSNNFGPILPPTNVGSHTP-NH2-acetate salt (wherein K* = Lys(AEEAc-AEEAc-γ-Glu-17-carboxyheptadecanoyl))], the EC50 is 0.324 nM at Human GLP-1R, 46.1 nM on Human Calc/RAMP3R (AMY3), 44.2 nM on Human CalcitoninR and 0.019 nM on Human GIPR.

Regarding Cagrilintide [reference compound], the “Blood glucose, 120 min” value in the assay on 4 h fasted mice (4 h fasted mice, single s.c. 10 nmol/Kg, 120 min after injection, mean ± SEM) is 189.7 ± 5.52 mg/dL. In addition, the “Blood glucose, 240 min” value in the assay with 4 h fasted mice (4 h fasted mice, single s.c. 10 nmol/Kg, 240 min after injection, mean ± SEM) was found to be 164.6 ± 6.48 mg/dL. In addition, the “Blood glucose, Time 0” value with 4 h fasted mice (4 h fasted mice, single s.c. 10 nmol/Kg, Time 0 (baseline), mean ± SEM) stood at 169.0 ± 3.45 mg/dL. Further, in the assay on 4 h fasted mice (single s.c. 10 nmol/kg), the “Significantly reduced blood glucose at 120 min and 240 min compared to time 0” value is reported as “not”.

Turning to “Y[Aib]EGTFTSDYSI[Aib]LDKIAQQAFVQWLIAGGPSASHLSTAVLGK([AEEA-AEEA-γGlu-C18 diacid])LS[Aib]ELHKLEDYPRTDVGAESP-NH2 [SEQ ID NO. 57, Y-Aib-E-G-T-F-T-S-D-Y-S-I-Aib-LDKIAQQAFVQWLIAGGPSASHLSTAVLGK*-L-S-Aib-E-L-H-K-L-E-D-Y-P-R-T-D-V-G-A-E-S-P-NH2-acetate salt (wherein K* = Lys(AEEAc-AEEAc-γ-Glu-17-carboxyheptadecanoyl))]”, the EC50 was 0.724 nM at Human GLP-1R, 0.152 nM at Human Calc/RAMP3R (AMY3), 0.044 nM on Human CalcitoninR and 0.047 nM on Human GIPR.

As to “Y[Aib]EGTFTSDYSI[Aib]LDKIAQQAFVQWLIAGGPSKCNTATCATQK([AEEA-AEEA-γGlu-C18 diacid])LAEFLRHSSNNFGPILPPTNVGSHTP-NH2 (disulfide 34-39 (inferred)) [SEQ ID NO. 56, Y-Aib-E-G-T-F-T-S-D-Y-S-I-Aib-LDKIAQQAFVQWLIAGGPSKCNTATCATQK*-LAEFLRHSSNNFGPILPPTNVGSHTP-NH2-acetate salt (wherein K* = Lys(AEEAc-AEEAc-γ-Glu-17-carboxyheptadecanoyl))]”, the EC50 at Human GLP-1R was found to be 1 nM; at Human GIPR, 0.029 nM.

Turning to “Y[Aib]EGTFTSDYSI[Aib]LDKIAQQAFVQWLIAGGPSSGAPPPSCNTATCVLGRLSQELHRLQTYPRTNTGK([AEEA-AEEA-γGlu-C18 diacid])NTY-NH2 (disulfide 40-45 (inferred)) [SEQ ID NO. 45, Y-Aib-E-G-T-F-T-S-D-Y-S-I-Aib-LDKIAQQAFVQWLIAGGPSSGAPPPSCNTATCVLGRLSQELHRLQTYPRTNTGK*-N-T-Y-NH2-acetate salt (wherein K* is Lys(AEEAc-AEEAc-γ-Glu-17-carboxyheptadecanoyl))]”, the EC50 is 0.416 nM at Human GLP-1R, 0.333 nM at Human Calc/RAMP3R (AMY3), 0.106 nM on Human CalcitoninR and 0.041 nM on Human GIPR.

Turning to “Y[Aib]EGTFTSDYSI[Aib]LDKIAQQAFVQWLIAGGPSSGAPPPSKCNTATCVLGRLSQELHRLQTYPRTNTK([AEEA-AEEA-γGlu-C18 diacid])SNTY-NH2 (disulfide 41-46 (inferred)) [SEQ ID NO. 52, Y-Aib-E-G-T-F-T-S-D-Y-S-I-Aib-LDKIAQQAFVQWLIAGGPSSGAPPPSKCNTATCVLGRLSQELHRLQTYPRTNTK*-S-N-T-Y-NH2-acetate salt (wherein K* is Lys(AEEAc-AEEAc-γ-Glu-17-carboxyheptadecanoyl))]”, the EC50 at Human GLP-1R was 0.59 nM; at Human Calc/RAMP3R (AMY3) it was 1.24 nM; on Human CalcitoninR, 0.694 nM; at Human GIPR, 0.147 nM.

B1: Y-Aib-E-G-T-F-T-S-D-Y-S-I-Aib-LDKIAQQAFVQWLIAGGPSSGAPPPSCNTATCVLGRLSQELHRLQTYPRTNTGK*-N-T-Y-NH2-acetate salt (wherein K* = … (peptide)
chain: Y[Aib]EGTFTSDYSI[Aib]LDKIAQQAFVQWLIAGGPSSGAPPPSCNTATCVLGRLSQELHRLQTYPRTNTGK([γGlu-γGlu-C20 diacid])NTY-NH2
modifications: also: acetate salt
As for B1, the EC50 is 0.854 nM with Human GLP-1R, 0.218 nM with Human Calc/RAMP3R (AMY3), 0.388 nM with Human CalcitoninR and 0.011 nM in the assay with Human GIPR.
